Patent publication US20230312652A1, “NOVEL PEPTIDES AND USES THEREOF” (Aarhus Universitet, priority 2020, published 2023)
Where a SMILES comes first, the peptide text is derived from it.

Experiments:
[1] = system: GRN+/- hippocampal neurons; experiment: Lysosomal acidification in GRN+/- hippocampal neurons, LysoSensor DND-189; format: cell-based, mouse; conditions: 1 uM, 4 hours
Experimental: Primary hippocampal neurons from GRN+/− mice were seeded in an 8-well ibidi chamber pre-coated with Poly-I and laminin. 75,000 neurons were seeded pr. well. After 5 days in vitro the neurons were stimulated for 4, 8 or 24 hours with peptide P1 at 1 uM in neurobasal A with B27. After stimulation, the medium was changed to pre-warmed (37° C.) neurobasal A containing 1 uM of LysoSensor probe DND-189 (an acidotropic probes that accumulates in acidic organelles as the result of protonation) and incubated for 30 min. at 37° C. in a 5% C02 atmosphere. Hereafter, the media was changed to pre-warmed FluoroBrite Medium and the neurons were imaged in Olympus microscopy system. Pictures were taken of the lysosomes and processed using the ScanR imaging software to give fluorescence (intensity) of each lysosomal vesicle. The summed total intensity of all lysosomes was calculated and divided by the total number of neurons imaged yielding the total intensity of lysosomes per neuron. Student's t-test was used for statistical analysis.

[2] = system: HTT in GM04719 fibroblasts; experiment: Huntingtin levels in Huntington's patient-derived fibroblasts (GM04719), western blotting; format: cell-based, human
Experimental: GM04719 was seeded at 30,000-50,000 per well in a 96-well. The following day, the cells were treated with 1 uM of P1 and incubated at 37° C. and 5% CO2 at timepoints 0-24 hours. Hereafter, the cells were lysed in RIPA lysis buffer containing cOmplete cocktail protease inhibitor. Total Huntingtin levels were analysed using antibody mab2166 (Sigma-Aldrich) by western blotting and normalized to beta-actin. To determine, whether P1 also clears the healthy allele, we further assessed levels of total HTT in fibroblast derived from a healthy individual (GM01650E), bought from Coriell Biobank.
To get a direct measurement and further validation of the selective degradation of the disease-allele another study was carried out in GM04719 fibroblasts. Here, at 30,000-50,000 were seeded per well in a 96-well. The following 3 days, the cells were treated with 1 uM of P1 every 24 hour and during this incubated at 37° C. and 5% CO2. 24 hours after third treatment, the cells were lysed in RIPA lysis buffer containing cOmplete cocktail protease inhibitor. Mutated Huntingtin levels were measured using antibody, which only detects the disease-allele (MW1 ab). Total Huntingtin levels were likewise analysed using antibody mab2166 and both were normalized to beta-actin.

[3] = system: CREB and AMPK; experiment: CREB and AMPK activation in brain of wild-type mice after subcutaneous injection; format: in vivo, mouse; conditions: SC
Experimental: To assess the subcutaneous administration route of peptide P1, 8 weeks old wild-type mice were subcutaneously injected with different doses ranging between 0.13 to 26 mg/kg of peptide P1 dissolved in 4.38 mM L-His, 140 mM NaCl, 0.2% Tween-20 and 1500 IU hyaluronidase (pH 6.15). Likewise, was an earlier lead peptide constituting a linear version of P1 attached to a cell-penetrating moiety (P9, SEQ ID NO: 9), tested for its ability to activate CREB in both striatum and hippocampus (in a separate study) following subcutaneous injection with 3.6 mg/kg. 2 hours after injection the mice were sacrificed by cervical dislocation and striatal tissue was isolated by dissection and snap frozen in liquid nitrogen and stored at −80° C. until further use. To assess the activation of CREB and AMPK, the tissue was lysed using a TissueLyser in lysis buffer containing cOmplete and DTT. The samples were subsequently homogenized by sonication. The phosphorylation of CREB on serine 133 and threonine 172 on AMPK was subsequently validated by western blotting and the levels of were normalized to beta-actin. Student's t-test was used for statistical analysis.

[4] = Liver microsome stability, human; format: in vitro ADME; conditions: 2 μM, up to 60 minutes
Experimental: Reactions were stopped at timepoints between 0-60 min. and samples analysed by LCMS.

[5] = system: R6/2 mice (mouse model of Huntington's); experiment: Stereological analysis of regional brain volume in R6/2 mice; format: in vivo; conditions: 13 mg/kg SC daily, 8 to 12 weeks of age
Experimental: The brain was cut using a fine razor blade and one hemisphere (right) was directly put into ice-cold 4% PFA in PBS for 24 hours, and then transferred to a 30% sucrose PBS solution for 48 hours and stored at 4° C.
The PFA fixed hemispheres were imbedded in TissueTec and sliced on a cryostat at 50 μm thickness. For stereology, every 5th section was sampled using the principle of systematic random sampling, giving a section sampling fraction (SSF)=1/5.
The sections were mounted on chrome-gelatin-coated slides and Nissl stained with a 0.25% thionine solution (thionin, Sigma T3387). Image acquisition and analysis was performed using the newCAST system (Visiopharm, Horsholm, Denmark). This system consists of an Olympus light microscope (Olympus BX50, Olympus, Denmark) modified for stereology with a digital camera (PixeLINK PLA686C, Canada) and a motorized microscope stage (Prior H138 with controller H29, Cambridge, UK). The newCAST software was interfaced to the digital camera superimposing the counting frames on the live images.
The volume estimation was carried out using the Cavalieri principle for quantifying the total volume of the hippocampus, striatum and mid-part of the cortex (6 slides used for this) using a 4× lens.

[6] = system: TDP-43(ΔNLS)-YFP; experiment: Clearance of cytoplasmic TDP-43 in HEK293 cells, western blotting; format: cell-based; conditions: dose-range of P1, 24 hours
Experimental: 100,000 HEK293T cells were seeded in a 24-well plate per well. At 60% confluency the cells were transfected with a form of TDP-43-YFP with a mutated nuclear localization signal (TDP-43(ΔNLS)-YFP) to restrict TDP-43 to the cytosol, which is the pathogenic localization in frontotemporal dementia^67. After 24 hours, the cells were treated with a dose-range of peptide P1 and further incubated for another 24 hours. The cells were subsequently lysed in lysis buffer containing DTT and cOmplete cocktail protease inhibitor. The levels of TDP-43 were validated by western blotting using an anti-GFP antibody and the levels were normalized to beta-actin.

[7] = system: CREB; experiment: CREB activation in GRN+/- cortical neurons, western blotting; format: cell-based, mouse; conditions: 1 uM, 20 minutes
Experimental: In this study, it was examined whether peptide P1 could increase phosphorylation of CREB (ser133) similar to wild-type neurons. To study the activation of CREB, cortical neurons were isolated from GRN+/−p0 […] mice and seeded in a density of 500,000 per well. After 7 days in vitro the neurons were stimulated with peptide P1 at 1 uM in neurobasal A media at 37° C. and 5% CO2 and incubated for 20 minutes. Following, the neurons were lysed in lysis buffer containing DTT and cOmplete cocktail protease inhibitor and subsequently sonicated to disrupt the nuclear membrane. The phosphorylation of CREB on serine 133 was subsequently validated by western blotting. The levels of phosphorylated CREB were normalized to the corresponding beta-actin levels. Student's t-test was used for statistical analysis.

CSCC[C@@H]1NC(=O)[C@H](C(C)C)NC(=O)[C@H](CC(=O)O)NC(=O)[C@H](CCC(=O)O)NC(=O)[C@H](CCC(=O)O)NC(=O)[C@H](Cc2c[nH]cn2)NC(=O)[C@H](CCC(=O)O)NC(=O)[C@H](C(C)C)NC(=O)[C@@H]2CCCN2C(=O)[C@H](CCC(=O)O)NC(=O)[C@H]([C@@H](C)O)NC1=O [Peptide P1, [MTEPVEHEEDV]] (cyclo(MTEPVEHEEDV))
lysosomal intensity (lysosomal acidification) [1]: lysosomal intensity was increased
reduction of mutated Huntingtin (disease-allele, MW1 antibody) ([2]; 1 uM every 24 hour for 3 days): 20%
total Huntingtin (mab2166) ([2]; 1 uM every 24 hour for 3 days): not lowering the total amount of Huntingtin significantly
total HTT levels ([2]; 1 uM, 8 hours of stimulation): reduces total HTT levels
dose resulting in the highest efficacy ([3]; CREB and AMPK activation in striatum): 13 mg/kg
pAMPK in striatum ([3]; doses between 0.13-13 mg/kg, 2 hours after injection): significantly activated
pCREB (S133) in striatum ([3]; doses between 0.13-26 mg/kg, 2 hours after injection): significantly activated
clearance and stability in liver microsomes [4]: low clearance and high stability
cortical volume [5]: tendency of increasing
hippocampal volume [5]: tendency of increasing
cytoplasmic TDP-43 levels [6]: decreased the pathogenic cytoplasmic form of TDP-43
phosphorylation of CREB (S133) [7]: able to activate CREB
